Test results reported in EP2623495B1, “Positively charged water-soluble prodrugs of n-arylanthranilic acids with very fast skin penetration rate” (Techfields Biochem Co. Ltd, priority 2006, dated 2008).
Converted amounts (≈) assume the structure as drawn. Like-named read-outs stand apart in the source and are kept apart here.

Experiments:
Solubility in water = details: for solubility: solubility in water
[1] = J. Pharm. Sci., 82, 227(1993); cited from earlier work
[2] = In vitro penetration through human skin in modified Franz cells; assay type: in vitro ADME; details: for Apparent flux values: human skin 360-400 µm, donor 30% solution (prodrugs) or 30% suspension (parent drugs) in 2mL of pH 7.4 phosphate buffer (0.2M); for diffuses through human skin times faster than the parent drug: prodrug versus mefenamic acid, meclofenamic acid, flufenamic acid, niflumic acid, or flunixin
[3] = In vivo penetration through the skin of intact hairless mice, plasma levels by HPLC; details: for peak plasma levels / time to peak levels after application of the donor systems: 20% solution in 1 mL of isopropanol on 10 cm^2 of the backs of hairless mice; for peak plasma levels: plasma levels of parent drug; for time to peak levels after application of the donor systems: transdermal; for difference in peak plasma levels, prodrugs versus parent drugs: topical application, hairless mice
Text: (§1) The in vivo rates of penetration of diethylaminoethyl 2-[(2,3-dimethylphenyl)amino]benzoate.AcOH, diethylaminoethyl 2-[(2,6-dichloro-3-methylphenyl)amino]benzoate.AcOH, diethylaminoethyl 2-[[(3-(trifluoromethyl)phenyl)amino]benzoate.AcOH, diethylaminoethyl 2-[[3-(trifluoromethyl)phenyl]amino]-3-pyridinecarboxylate.AcOH, and diethylaminoethyl 2-[[2-methyl-3-(trifluoromethyl)phenyl]amino]-3-pyridinecarboxylate.AcOH, mefenamic acid, meclofenamic acid, flufenamic acid, niflumic acid, and flunixin through the skin of intact hairless mice were compared. The donor consisted of a 20% solution of these compounds in 1 mL of isopropanol applied to a 10 cm^2 on the backs of the hairless mice. Plasma levels of mefenamic acid, meclofenamic acid, flufenamic acid, niflumic acid, and flunixin were determined by a specific high-performance liquid chromatography method.

[4] = Acute toxicity, LD50 orally; details: mouse, in vivo, po; orally in mice; prodrugs
Text: The acute toxicity of the prodrugs was investigated.

[5] = Analgetic activity: acetic acid writhing inhibition; assay type: in vivo; details: mice; for No. of Writhings: 100 mg/kg transdermally 60 minutes before acetic acid solution intraperitoneally, control group 35.0; for rate of writhings inhibition %: 100 mg/kg transdermally 60 minutes before acetic acid solution, based on the control group
Text: The group A is the control group. Table 1. The rate of writhings inhibition by prodrugs of arylanthranilic acids

[6] = Gastroduodenal bleeding (fecal blood) after oral administration for 21 days; details: rats, orally 50 mg/kg per day for 21 days
[7] = Analgetic activity: prolongation time of the pain threshold of a mouse tail (D'Amour-Smith Method); assay type: in vivo, mice; details: 50mg/kg transdermally, mouse tails exposed to heat; Figure 3
Procedure: Analgetic activity: The prolongation time of the pain threshold of a mouse tail was determined in accordance with the D'Amour-Smith Method (J. Pharmacol. Exp. Ther., 72, 74(1941)). After 50mg/kg of these prodrugs were administered transdermally, the tails of mice were exposed to heat and the prolongation time of pain threshold was determined.
Group A is the control group. • Figure 4. The rate of swelling (%) after a carrageenin injection. […] Group A is the control group. • Figure 5.

[8] = Antipyretic activity after sterilized E. coli suspension as a pyrogen; assay type: in vivo; details: rats, 100 mg/kg transdermally 2 hours after E. coli pyrogen
Procedure: Antipyretic activity: Rats received a sterilized E. coli suspension as a pyrogen. […] The body temperature of rats was taken at 90 min. intervals before and after the administration of the test compounds. Table 2. Antipyretic Activity of prodrugs of arylanthranilic acids.

[9] = hairless, mouse, in vivo
Text: as §1

[10] = rat, in vivo, po, 50 mg/kg/day, 21 days
[11] = taken orally; cited from earlier work
[12] = cited from earlier work
physchem = details: water
[13] = parent drugs, given for comparison

Row | SMILES | solubility (Solubility in water) [mg/mL] | Apparent flux values [2] [mg/cm^2/h] | diffuses through human skin times faster than the parent drug [2] [times] | peak plasma levels [3] [mg/mL] | time to peak levels after application of the donor systems [3] [min] | difference in peak plasma levels, prodrugs versus parent drugs [3] | LD50 [4] [mg/kg] | No. of Writhings [5] | rate of writhings inhibition % [5] [%] | average fecal blood [6] | analgesic activity, prolongation time of pain threshold (in words) [7] | body temperature t=0 min. [8] | body temperature t=90 min. [8] | body temperature t=180 min. [8] | body temperature t=270 min. [8] | peak plasma levels [9] [mg/mL] | average fecal blood [10] | time to reach peak plasma level [11] [h] | solubility (physchem) [mg/mL] | also measured
1 | CC(=O)O.CCN(CC)CCNC(=O)c1ccccc1Nc1cccc(C)c1C [N-diethylaminoethyl 2-[(2,3-dimethylphenyl)amino] benzoamide.AcOH] |  |  |  |  |  |  |  |  |  |  |  |  |  |  |  |  |  |  |  | solubility in water (Solubility in water): 400 mg/mL
2 | CCN(CC)CCNC(=O)c1ccccc1Nc1c(Cl)ccc(C)c1Cl [N-diethylaminoethyl 2-[(2,6-dichloro-3-methylphenyl)amino] benzoamide.AcOH] | 400 (≈ 1010 mM) |  |  |  |  |  |  |  |  |  |  |  |  |  |  |  |  |  |  | 
3 | CN(C)CCCC(=O)O[C@H]1CC[C@H]2[C@@H]3CCC4=CC(=O)CC[C@]4(C)[C@H]3CC[C@]12C.Cl [TSBH, testosteronyl-4-dimethylaminobutyrate.HCl] |  |  |  |  |  |  |  |  |  |  |  |  |  |  |  |  |  |  |  | diffuses through human skin times faster than the drug (TS) itself [1]: ~60 times
4 | CCN(CC)CCOC(=O)c1ccccc1Nc1cccc(C)c1C [diethylaminoethyl 2-[(2,3-dimethylphenyl)amino]benzoate.AcOH] | > 400 | 2.1 | ~200 | ~2 | ~50 | approximately 200 times | 900 | 15.6 | 55 | none | shown analgesic activity nicely | 37.35±0.06 | 36.71±0.05 | 36.60±0.08 | 36.59±0.07 |  |  |  |  | 
5 | CCN(CC)CCOC(=O)c1ccccc1Nc1c(Cl)ccc(C)c1Cl [diethylaminoethyl 2-[(2,6-dichloro-3-methylphenyl)amino]benzoate.AcOH] | > 400 | 2.0 | ~200 | ~2 | ~50 | approximately 200 times | 1000 | 14.2 | 59 | none | shown analgesic activity nicely | 37.28±0.06 | 36.68±0.05 | 36.62±0.08 | 36.58±0.07 |  |  |  |  | 
6 | CCN(CC)CCOC(=O)c1cccnc1Nc1cccc(C(F)(F)F)c1C [diethylaminoethyl 2-[[2-methyl-3-(trifluoromethyl)phenyl]amino]-3-pyridinecarboxylate.AcOH] | > 450 | 1.7 | ~200 | ~2 | ~50 | approximately 200 times | 1100 | 15.7 | 55 | none | shown analgesic activity nicely | 37.23±0.06 | 36.69±0.06 | 36.52±0.08 | 36.40±0.07 |  |  |  |  | solubility in water (Solubility in water): 400 mg/mL (≈ 1010 mM)
7 | CCN(CC)CCOC(=O)c1cccnc1Nc1cccc(C(F)(F)F)c1 [diethylaminoethyl 2-[[3-(trifluoromethyl)phenyl]amino]-3-pyridinecarboxylate.AcOH] | > 450 | 1.8 | ~200 | ~2 | ~50 | approximately 200 times | 750 | 15.2 | 57 | none | shown analgesic activity nicely | 37.25±0.07 | 36.82±0.06 | 36.70±0.05 | 36.50±0.08 |  |  |  |  | solubility in water (Solubility in water): 400 mg/mL (≈ 1050 mM)
8 | CCN(CC)CCOC(=O)c1ccccc1Nc1cccc(C(F)(F)F)c1 [diethylaminoethyl 2-[[(3-(trifluoromethyl)phenyl)amino]benzoate.AcOH] | > 400 | 2.2 | ~200 | ~2 | ~50 | approximately 200 times | 800 | 16.1 | 54 | none | shown analgesic activity nicely | 37.27±0.06 | 36.76±0.05 | 36.65±0.08 | 36.49±0.07 |  |  |  |  | 
9 | O=C(O)c1ccccc1Nc1cccc(C(F)(F)F)c1 [flufenamic acid, 2-[[(3-trifluoromethyl)phenyl]amino]benzoic acid] |  |  |  |  |  |  |  |  |  |  |  |  |  |  |  | ~0.01 | 2-4 mg of fecal blood per gram of feces | 2 to 4 | < 0.1 | LD50 [12, 13]: 715 mg/kg
10 | Cc1c(Nc2ncccc2C(=O)O)cccc1C(F)(F)F [flunixin, 2-[[2-methyl-3-(trifluoromethyl)phenyl]amino]-3-pyridinecarboxylic acid] |  |  |  |  |  |  |  |  |  |  |  |  |  |  |  | ~0.01 | 2-4 mg of fecal blood per gram of feces | 2 to 4 | < 0.1 | 
11 | Cc1ccc(Cl)c(Nc2ccccc2C(=O)O)c1Cl [meclofenamic acid, 2-[(2,6-dichloro-3-methylphenyl)amino]benzoic acid] |  |  |  |  |  |  |  |  |  |  |  |  |  |  |  | ~0.01 | 2-4 mg of fecal blood per gram of feces | 2 to 4 | < 0.1 | 
12 | Cc1cccc(Nc2ccccc2C(=O)O)c1C [mefenamic acid, 2-[(2,3-Dimethylphenyl)amino]benzoic acid] |  |  |  |  |  |  |  |  |  |  |  |  |  |  |  | ~0.01 | 2-4 mg of fecal blood per gram of feces | 2 to 4 | < 0.1 | LD50 ([12]; mouse, in vivo): 600 mg/kg
13 | O=C(O)c1cccnc1Nc1cccc(C(F)(F)F)c1 [niflumic acid, 2-[[3-(trifluoromethyl)phenyl]amino]-3-pyridinecarboxylic acid] |  |  |  |  |  |  |  |  |  |  |  |  |  |  |  | ~0.01 | 2-4 mg of fecal blood per gram of feces | 2 to 4 | < 0.1 | LD50 [12, 13]: 650 mg/kg
